Experimental findings from US4690891A, “Method and the microorganism and enzyme used therein for degrading the xanthan molecule” (Exxon Research and Engineering Company, priority 1985, dated 1987) are described below.

For assay [1], the system named is xanthan depolymerase. Put plainly: Substrate specificity of xanthan depolymerase. The format is biochemical, Bacillus sp. (culture NRRL B-15992). The following applies: forty μg of enzyme per assay. The procedure:
(§1) A novel xanthan depolymerase was purified from the culture supernatant and examined for its effect on degrading xanthan. In the following, enzyme assays were conducted with either viscosity or reducing sugar measurements by incubating a 1.25 ml xanthan stock solution and a small amount of enzyme(s) at 25° C. Xanthan stock solution was prepared by dissolving 0.188% xanthan, 0.4 mM MgSO4, and 0.03 mM MnSO4 in 0.05 M sodium acetate buffer pH 5.4. At certain time intervals samples were taken for either viscosity or reducing sugar assay. Viscosity was measured at 25° C. (using a Contraves low-shear 30 rheometer, Middlesex, U.K. at a shear rate of 1.3 sec.^-1 1). The rheometer was equipped with a refrigerated circulating bath (Neslab Endoccal bath, Portsmouth, N.H.). Reducing sugars, calculated as glucose, were determined by the method of Somogyi, M., (1945), "A New Reagent for the Determination of Sugars", J. Biol. Chem. 160, 61-69. […] The changes in viscosity and reducing sugars between two time intervals (1.0 min to 2.0 min for Δ cps, 0.5 min to 1.5 min for Δ reducing sugars) were measured. Enzyme activity (in units) was expressed as Δ cps/min (depolymerase) or Δμmoles reducing sugar group released (as glucose) per min. (for both endo and exoglucanases). Specific enzyme activity was expressed as units per mg of protein.

Assay [2] relates to xanthan depolymerase. Put plainly: Inhibition of xanthan depolymerase activity, assayed viscosimetrically. Type of assay: biochemical, Bacillus sp. (culture NRRL B-15992). The method, then: as §1
Various chemicals including thiols, metal ions and metal-chelating agents were tested for inhibition of xanthan depolymerase activity. These chemicals (at 1 mM concentration unless otherwise stated) were added into xanthan stock solutions. Enzyme activity was assayed viscosimetrically.

Assay [3] has as its system culture B-15992. Put plainly: Effect of chemicals and biocide on growth of culture B-15992 in xanthan broth (viscosity loss). Type of assay: cell-based, Bacillus sp. / Flavobacterium sp. mixed culture NRRL B-15992. The procedure:
Chemicals and biocides, including those used in enhanced oil recovery operations were studied for their effect on the growth of culture B-15992 and on the activity of xanthan-degrading enzyme(s). Both aerobic and anaerobic conditions were tested. In order to simulate the conditions used in EOR field operation, xanthan was produced in the laboratory by growing Xanthomonas campestris according to the published procedure, Jeanes, A., et al, (1976), "Polysaccharide (xanthan) of Xanthomonas campestris NRRL B-1459: Procedures for culture maintenance and polysaccharide production, purification and analysis". Agricultural Research Service, U.S. Department of Agriculture AR-NC-51. After centrifugation, the culture broth was autoclaved and was diluted with brine to about 300 cps viscosity. A cell suspension of culture B-15992 obtained from colonies grown on agar plates was used as the innoculum. Growth of B-15992 was followed by monitoring decreases of viscosity of the culture broth and by microscopic observation.

Assay [4] concerns culture B-15992. The text has this:
The stable mixed culture is hereinafter designated NRRL B-15992.

Where two headings read alike, the source gives them in different places. A value given as a limit tells only on which side of the number the result lay.

In the case of `OC[C@H]1O[C@@H](O[C@H]2[C@H](O)[C@@H](O)C(O)O[C@@H]2CO)[C@H](O)[C@@H](O)[C@@H]1O` (single isomer, unassigned) [D(+) cellobiose], the “Enzyme Activity (μmoles reducing sugar/min)” value with xanthan depolymerase [1] came out at 0 μmoles reducing sugar/min. With `c1cnc2c(c1)ccc1cccnc12` [1,10-phenanthroline], in the assay on xanthan depolymerase [2] (inhibitor 1 mM), the % Inhibition (usually the change of the read-out against control, counted positive when it falls) worked out at 0%.

As to `O=C(O)c1cc(SSc2ccc([N+](=O)[O-])c(C(=O)O)c2)ccc1[N+](=O)[O-]` [5,5'-dithio-bis-2-n-nitrobenzoic acid], the “% Inhibition” value with xanthan depolymerase [2] (inhibitor 1 mM) is 0%. As to `Oc1cccc2cccnc12` [8-hydroxyquinoline], the “% Inhibition” value with xanthan depolymerase [2] was 0%. As for `OC[C@H]1O[C@H](O[C@H]2O[C@H](CO)[C@@H](O)[C@H](O)[C@H]2O)[C@H](O)[C@@H](O)[C@@H]1O` [D(+) trehalose], the “Enzyme Activity (μmoles reducing sugar/min)” value with xanthan depolymerase [1] stood at 0 μmoles reducing sugar/min.

With `N#CC(Br)(Br)C(N)=O` [DBNPA, 2,2-dibromo-3-nitrilopropionamide], in the assay on culture B-15992 [3] (10 ppm), the “prevention of growth of B-15992” value is reported as “not effective in preventing the growth of B-15992” and the “Viscosity (cps after days incubation) Anaerobic” value was 300 cps. Also, in the assay with culture B-15992 [3] (10 ppm, aerobic), the “time until solution viscosity was lost” value was not above 5 days. In the assay with culture B-15992 [3] (10 ppm, aerobic, 5 days), the “Viscosity (cps after days incubation) Aerobic” value turned out to be 1.5 cps.

Turning to `[Na+].[O-]c1cc(Cl)c(Cl)cc1Cl` [Dowicide B, sodium trichlorophenate], the “inhibition of xanthan depolymerase activity” value in the assay on xanthan depolymerase [2] (100 ppm) is “failed to inhibit”.

`O=C(O)CN(CCN(CC(=O)O)CC(=O)O)CC(=O)O` [EDTA]: the “% Inhibition” value in the assay with xanthan depolymerase [2] is 0%.

As to `C=O` [HCHO, formaldehyde], in the assay with culture B-15992 [3] (25 ppm, aerobic), the “time for B-15992 to degrade the xanthan solution” value came to 9 days. The “Viscosity (cps after days incubation) Aerobic” value was 1.5 cps in the assay on culture B-15992 [3] (25 ppm, aerobic, 9 days, about 300 cps at start) and 300 cps in the assay with culture B-15992 [3] (50 ppm, aerobic). In addition, the “Viscosity (cps after days incubation) Anaerobic” value in the assay on culture B-15992 [3] (25 ppm) and in the assay on culture B-15992 [3] (50 ppm) was 300 cps throughout. Also, the “prevention of growth of B-15992” value in the assay on culture B-15992 [3] (25 ppm, compared with 10 ppm DBNPA) is given as “somewhat more effective”. Besides, the “changes in solution viscosity or cell growth” value in the assay with culture B-15992 [3] (50 ppm, during 30 days of incubation) is “no changes in solution viscosity or cell growth”. Besides, in the assay on xanthan depolymerase [2], the “inhibition of xanthan depolymerase activity” value is “not inhibited”. For `[Cl-].[K+]` [KCl], the “inhibition of xanthan depolymerase activity” value with xanthan depolymerase [2] (1 mM) is reported as “not inhibited”. Take `[K+].[OH-]` [KOH]: in the assay on xanthan depolymerase [2] (5.0 mM (Trizma ph 8.5)), the “inhibition of xanthan depolymerase activity” value is “not inhibited”.

For the compound `N#CSCSC#N` [MBT 3522, methylene bisthiocyanate], the “inhibition of xanthan depolymerase activity” value in the assay with xanthan depolymerase [2] (100 ppm) is reported as “failed to inhibit”. For the compound `CCN1C(=O)C=CC1=O` [N--ethylmaleimide], the “% Inhibition” value with xanthan depolymerase [2] (inhibitor 1 mM) was 40%. For the compound `O=S([O-])S(=O)[O-].[Na+].[Na+]` [Na2 S2 O4, sodium dithionite], the “Viscosity (cps after days incubation) Aerobic” value with culture B-15992 [3] (75 ppm, aerobic, xanthan broth about 300 cps at start) was determined as 1.0 cps. Also, the “Viscosity (cps after days incubation) Anaerobic” value with culture B-15992 [3] (75 ppm, about 300 cps at start) is listed as 300 cps. Further, the “inhibition of xanthan depolymerase activity” value in the assay with xanthan depolymerase [2] (0.2%) and with xanthan depolymerase [2] (100 ppm) was “not inhibited” throughout. Regarding `[Cl-].[Na+]` [NaCl], in the assay on xanthan depolymerase [2], the “inhibition of xanthan depolymerase activity” value is “not inhibited”. For the same compound, the “growth of culture B-15992” value with culture B-15992 [4] (10% salt concentration) is on record as “completely inhibited”; in the assay on culture B-15992 [4] (salt concentration between 6-8%), “somewhat slower”; with culture B-15992 [4] (up to 5% salt (NaCl) concentration), “not inhibited”.

With `[Na+].[OH-]` [NaOH], the “inhibition of xanthan depolymerase activity” value in the assay on xanthan depolymerase [2] (5.0 mM (Trizma ph 8.5)) is “not inhibited”.

On to `NC(CO)(CO)CO` [Trizma], for which the “inhibition of xanthan depolymerase activity” value with xanthan depolymerase [2] is “not inhibited”. With `N.N.O=S(=O)(O)O` [ammonium sulfate], the “inhibition of xanthan depolymerase activity” value with xanthan depolymerase [2] is given as “not inhibited”. Regarding `Clc1ccccc1` [chlorobenzene], the “inhibition of xanthan depolymerase activity” value with xanthan depolymerase [2] (100 ppm) is given as “not inhibited”. Regarding `ClC(Cl)Cl` [chloroform], the “inhibition of xanthan depolymerase activity” value in the assay with xanthan depolymerase [2] is reported as “not inhibited”. In the case of `O=C(O)CC(O)(CC(=O)O)C(=O)O` [citric acid], the “inhibition of xanthan depolymerase activity” value with xanthan depolymerase [2] (5.5 mM) is reported as “not inhibited”. For `N#CC(Br)(Br)C(N)=O` [dow Antimicrobial 7287, 2,2-dibromo-3-nitrilopropionamide], the “inhibition of xanthan depolymerase activity” value in the assay with xanthan depolymerase [2] (100 ppm) is given as “failed to inhibit”. For `[Cl][Fe]([Cl])[Cl]` [ferric chloride], in the assay on xanthan depolymerase [2], the “% Inhibition” value is listed as 100% and the “inhibition of xanthan depolymerase activity” value is given as “inhibited strongly”. As to `c1c[nH]cn1` [imidazole], the “% Inhibition” value with xanthan depolymerase [2] is recorded as 30%. For `NC(=O)CI` [iodoacetamide], the “% Inhibition” value in the assay on xanthan depolymerase [2] (inhibitor 1 mM) was determined as 0%.

In the case of `O=C(O)CI` [iodoacetic acid], in the assay on xanthan depolymerase [2], the “% Inhibition” value is given as 0%. As to `O=C(O)c1cc[c]([Hg+])cc1.[OH-]` [p-hydroxymercuribenzoate], the “% Inhibition” value with xanthan depolymerase [2] (inhibitor 1 mM) stood at 40%. Still for that read-out and setting: as for `[N-]=[N+]=[N-]` [sodium azide], the figure is 0%. In the case of `OCl` [sodium hypochlorite], the “inhibition of xanthan depolymerase activity” value with xanthan depolymerase [2] (100 ppm) is on record as “not inhibited”.

Consider `On1ccccc1=S` [sodium omadine], for which the “inhibition of xanthan depolymerase activity” value with xanthan depolymerase [2] is recorded as “failed to inhibit”. As to `NNC(N)=S` [thiosemicarbazide], the “% Inhibition” value in the assay on xanthan depolymerase [2] (inhibitor 1 mM) was found to be 20%. As for `NC(N)=S` [thiourea], the “% Inhibition” value in the assay with xanthan depolymerase [2] (inhibitor 1 mM) came to 20%. As to `c1ccc(-c2ccccn2)nc1` [α, α' bipyridyl], the “% Inhibition” value with xanthan depolymerase [2] (inhibitor 1 mM) was found to be 30%. `O=C(CCl)c1ccc(O)c(O)c1` [α-chloro-3,4-dihydroxyacetophenone]: the “inhibition of xanthan depolymerase activity” value in the assay with xanthan depolymerase [2] (100 ppm) is “not inhibited”. On to Triton X-100, for which the “Viscosity (cps after days incubation) Aerobic” value with culture B-15992 [3] (500 ppm, aerobic) is 90 cps. Also, the “Viscosity (cps after days incubation) Anaerobic” value in the assay on culture B-15992 [3] (500 ppm) was 300 cps. Besides, the “inhibition of xanthan depolymerase activity” value in the assay on xanthan depolymerase [2] (4%) is reported as “not inhibited”.

On to arsenomolybdate, for which, in the assay on xanthan depolymerase [2] (concentrations of Table VI), the “inhibition of xanthan depolymerase activity” value is “inhibited strongly”. Moreover, in the assay on xanthan depolymerase [2] (inhibitor 4%), the “% Inhibition” value was 100%.

As to chlorophenol, the “inhibition of xanthan depolymerase activity” value in the assay on xanthan depolymerase [2] (100 ppm) was “not inhibited”. As for ferrous sulfate, in the assay on xanthan depolymerase [2] (5.5 mM), the “inhibition of xanthan depolymerase activity” value was “not inhibited”.
